Source: patent US20160304547A1, “MACROLIDE COMPOUND” (PULIKE BIOLOGICAL ENGINEERING, INC, priority 2013, published 2016)
Values after ≈ are worked out from the molar mass of the structure shown.

Legend:
[1] = tested on: Streptococcus pneumoniae CMCC 31203; test: In vivo antibacterial test, survival of infected BALB/c mice; details: BALB/c mice infected i.p. with Streptococcus pneumoniae; for responders at 5 mg/kg: CMCC31203, sc, 168 h, 5 mg per kg s.c. via neck for 3 consecutive days, deaths recorded until the seventh day, read-out: Animal survival rate
[2] = orally intoxicated mice; cited from earlier work
[3] = Acute toxicity test of compound Syzx-24, single gastric perfusion; details: Balb/c mice, 2000 mg/kg once by gastric perfusion, 6 h after administration
[4] = tested on: Staphylococcus aureus CVCC26003; test: MIC by mini broth dilution technique (in vitro susceptibility); format: cell-based; details: Staphylococcus aureus CVCC26003; broth dilution; read-out: MIC values Staphylococcus aureus CVCC26003
Procedure: (§1) in vitro tests of susceptibility of the compounds according to the present disclosure against bacterial strains commonly used in laboratories. In accordance with the Performance Standards for Antimicrobial Disk Susceptibility Tests: Approved Standard published by the US National Committee for Clinical Laboratory Standards, the antibactetial activities of compounds prepared according to examples 5 to 187 were tested. The MICs (minimum inhibitory concentration) of the medicaments prepared according to the examples on the following bacterial strains were measured through mini broth dilution technique. Staphylococcus aureus CVCC26003, Streptococcus equines CVCC556. Actinobacillus pleuropneumoniae CVCC262, Haemophilus parasuis, and Pasteurella multocida CVCC399, which were purchased from the Control Institute of Veterinary Bioproducts and Pharmaceuticals, China. Liquid culture medium: CAMHB. […] Solid culture medium: NINA prepared according to the specification of the final product. The strains were taken out of a regrigerator at −20° C. to be revived, and were spreaded by streaking on the solid culture medium with an inoculating loop. The inoculated culture medium was cultured at 35° C. in a constant temperature incubator for 20 h. Monoclonal antibodies were selected from a well-grown culture plate and streaked on the solid culture medium. The inoculated culture medium was cultured at 35° C. in the constant temperature incubator for 20 h. […] A 96-well plate was used, and 100 μl of DMSO was added into each of wells 2 to 11, and 200 μl of ready-prepared medicament solution was added into the 1st well, 100 μl of the medicament solution was extracted from the 1st well and added into the 2nd well. Double dilution was performed until the 11th well, thereby forming 11 gradients. In this case, compound of parent plate was prepared. 3 μl of double diluted medicament solution was extracted with a 12-channel pipettor and added into wells 1-11 of a new disposable 96-well culture plate. The 12th well thereof is a controll well. For each medicament, there are two adjacent rows which are parallel. The transferred compound plate was reserved for later use. […] The dilution ratio was recorded, and the bacterial liquid for the tests was diluted according to the recorded dilution ratio. Subsequently, the bacterial suspension and the liquid culture medium were diluted in the proportion of 1:200. The diluted solution was reserved for later use.

Haemophilus parasuis = test: as above; format: cell-based; details: Glaesserella parasuis; Haemophilus parasuis; broth dilution; read-out: MIC values Haemophilus parasuis
Procedure: as §1, with “medium:” for “medium: CAMHB.”, “NINA prepared according to the specification of the final product.” left out

[5] = tested on: Streptococcus equines CVCC556; test: as above; format: cell-based; details: Streptococcus equines CVCC556; broth dilution; read-out: MIC values Streptococcus equines CVCC556
Procedure: as §1, with “medium:” for “medium: CAMHB.”, “NINA prepared according to the specification of the final product.” left out

[6] = tested on: Actinobacillus pleuropneumoniae CVCC262; test: as above; format: cell-based; details: Actinobacillus pleuropneumoniae CVCC262; broth dilution; read-out: MIC values Actinobacillus pleuropneumoniae CVCC262
Procedure: as §1, with “medium:” for “medium: CAMHB.”, “NINA prepared according to the specification of the final product.” left out

[7] = tested on: Pasteurella multocida CVCC399; test: as above; format: cell-based; details: Pasteurella multocida CVCC399; broth dilution; read-out: MIC values Pasteurella multocida CVCC399
Procedure: as §1, with “medium:” for “medium: CAMHB.”, “NINA prepared according to the specification of the final product.” left out

Row | Structure (SMILES) | Animal survival rate ([1]; Tulathromycin control group, 10 mg per kg of body weight after infection, until the seventh day) | minimum lethal dose [2] | Death rate [3] | Number of dead animals/total number of animals [3] | MIC [4] | responders at 5 mg/kg [1] | MIC (Haemophilus parasuis) | MIC [5] | MIC [6] | MIC [7]
1 | CCCNC[C@]1(O)[C@H](C)O[C@@H](O[C@H]2[C@H](C)[C@@H](O[C@@H]3O[C@H](C)C[C@H](N(C)C)[C@H]3O)[C@](C)(O)C[C@@H](C)CN[C@H](C)[C@@H](O)[C@](C)(O)[C@@H](CC)OC(=O)[C@@H]2C)C[C@@]1(C)OC [Tulathromycin, reference compound] | 70% (7/10) | higher than 2000 mg/kg.d-1 | 75% | – | – | – | – | – | – | –
2 | CC[C@H]1OC(=O)[C@H](C)[C@@H](O[C@H]2C[C@@](C)(OC)[C@](O)(CN(C)C)[C@H](C)O2)[C@H](C)[C@@H](O[C@@H]2O[C@H](C)C[C@H](N(C)C)[C@H]2O)[C@](C)(O)C[C@@H](C)NC[C@H](C)[C@@H](O)[C@]1(C)O [syzx-24] | – | – | 0% | 0/4 | – | – | – | – | – | –
3 | CC[C@@H]1OC(=O)[C@H](C)[C@H](OC2C[C@@](C)(OC)[C@](O)(CNCCCOC)[C@H](C)O2)[C@@H](C)[C@@H](O[C@@H]2O[C@H](C)C[C@H](N(C)C)[C@H]2O)[C@](C)(O)C[C@@H](C)NC[C@@H](C)[C@H](O)[C@]1(C)O (some centres unmarked) [syzx-66] | – | – | – | – | 1 µg/mL (≈ 1.2 µM) | 80% | ≤ 0.25 µg/mL | 0.5 µg/mL (≈ 0.598 µM) | 8 µg/mL (≈ 9.57 µM) | ≤ 0.25 µg/mL
4 | CC[C@@H]1OC(=O)[C@H](C)[C@H](OC2C[C@@](C)(OC)[C@](O)(CNCC3CCCCC3)[C@H](C)O2)[C@@H](C)[C@@H](O[C@@H]2O[C@H](C)C[C@H](N(C)C)[C@H]2O)[C@](C)(O)C[C@@H](C)NC[C@@H](C)[C@H](O)[C@]1(C)O (some centres unmarked) [syzx-67] | – | – | – | – | ≤ 0.25 µg/mL | 70% | ≤ 0.25 µg/mL | ≤ 0.25 µg/mL | 0.5 µg/mL (≈ 0.581 µM) | ≤ 0.25 µg/mL
5 | CCCN1C[C@@H](C)[C@@H](O)[C@](C)(O)[C@H](CC)OC(=O)[C@H](C)[C@H](OC2C[C@@](C)(OC)[C@](O)(CN(C)CC)[C@H](C)O2)[C@H](C)[C@@H](O[C@@H]2O[C@H](C)C[C@H](N(C)C)[C@H]2O)[C@](C)(O)C[C@H]1C (some centres unmarked) [syzx-213] | – | – | – | – | 0.25 µg/mL (≈ 0.295 µM) | 90% | 0.25 µg/mL (≈ 0.295 µM) | 0.25 µg/mL (≈ 0.295 µM) | 0.25 µg/mL (≈ 0.295 µM) | 0.25 µg/mL (≈ 0.295 µM)
